Data: US20060263802A1 (priority 2003, published 2006)

Columns and labels:
Type in all cases: binding
[1] = tested on: human monoclonal antibody CR57
[2] = tested on: human monoclonal antibody CR57; remark: listed apart in the source
[3] = tested on: human monoclonal antibody CRJA
[4] = tested on: human monoclonal antibody CRJB
[5] = tested on: human monoclonal antibody CRJB; remark: listed apart in the source
[6] = tested on: human monoclonal antibody CRJA; remark: listed apart in the source

Row | Sequence | Binding of CR57 (10 μg/ml) to looped/cyclic peptide (PEPSCAN-ELISA signal) [1] | Binding of CR57 to linear peptide (PEPSCAN-ELISA signal) [2] | Binding of CRJA (10 μg/ml) to looped/cyclic peptide (PEPSCAN-ELISA signal) [3] | Binding of CRJB (10 μg/ml) to looped/cyclic peptide (PEPSCAN-ELISA signal) [4] | Binding of CRJB to linear peptide (PEPSCAN-ELISA signal) [5] | Binding of CRJA to linear peptide (PEPSCAN-ELISA signal) [6] | Binding of CR57 (10 μg/ml) to looped/cyclic peptide (PEPSCAN-ELISA) [1] | binding of antibody CR57 to linear peptide (PEPSCAN OD) [2] | strength of binding of CR57 (OD value compared with the other peptides / twice the average value) [2] | Binding of CRJA (10 μg/ml) to looped/cyclic peptide (PEPSCAN-ELISA) [3] | Binding of CRJB (10 μg/ml) to looped/cyclic peptide (PEPSCAN-ELISA) [4] | Binding of CR57 to looped/cyclic peptide (PEPSCAN-ELISA signal) [1] | Binding of human monoclonal antibody CR57 to linear peptide (PEPSCAN-ELISA signal) [2] | Binding of CRJA to looped/cyclic peptide (PEPSCAN-ELISA signal) [3] | Binding of CRJB to looped/cyclic peptide (PEPSCAN-ELISA signal) [4] | Binding of human monoclonal antibody CRJB to linear peptide (PEPSCAN-ELISA signal) [5] | Binding of human monoclonal antibody CRJA to linear peptide (PEPSCAN-ELISA signal) [6]
1 | AAYNWKMAGDPRYEE | 104 | 68 | 78 | 90 | 106 | 78 | – | – | – | – | – | – | – | – | – | – | –
2 | ACKLKLCGVLGLRLM | – | 148 | – | – | 117 | 79 | 111 | bound | lower than twice the average value | 71 | 92 | – | – | – | – | – | –
3 | ACRAAYNWKMAGDPR | 138 | 82 | 110 | 93 | 116 | 93 | – | – | – | – | – | – | – | – | – | – | –
4 | ADAHYKSVRTWNEIL | – | 56 | – | – | 100 | 93 | 69 | – | – | 90 | 82 | – | – | – | – | – | –
5 | ADLDPYDRSLHSRVF | 93 | 70 | 92 | 73 | 121 | 100 | – | – | – | – | – | – | – | – | – | – | –
6 | ADPSTVFKDGDEAED | – | – | – | – | – | – | – | – | – | – | – | 118 | 147 | 101 | 72 | 152 | 101
7 | AEDFVEVHLPDVHNQ | – | – | – | – | – | – | – | – | – | – | – | 117 | 123 | 101 | 90 | 138 | 114
8 | AENYTNFVGYVTTTF | 58 | 66 | 46 | 68 | 106 | 74 | – | – | – | – | – | – | – | – | – | – | –
9 | AGDPRYEESLHNPYP | 64 | 40 | 58 | 54 | 101 | 83 | – | – | – | – | – | – | – | – | – | – | –
10 | AHYKSVRTWNEILPS | – | 112 | – | – | 160 | 106 | 106 | – | – | 104 | 106 | – | – | – | – | – | –
11 | AIKMNGFTCTGVVTE | 69 | 47 | 71 | 79 | 103 | 93 | – | – | – | – | – | – | – | – | – | – | –
12 | ALESIMTTKSVSFRR | – | 97 | – | – | 132 | 107 | 136 | – | – | 108 | 111 | – | – | – | – | – | –
13 | AMQTSNETKWCPPDQ | – | 104 | – | – | 114 | 85 | 84 | – | – | 90 | 58 | – | – | – | – | – | –
14 | ASKGSETCGFVDERG | – | 97 | – | – | 108 | 106 | 96 | – | – | 120 | 94 | – | – | – | – | – | –
15 | AVSSTYCSTNHDYTI | 129 | 71 | 91 | 79 | 105 | 102 | – | – | – | – | – | – | – | – | – | – | –
16 | AYNWKMAGDPRYEES | 96 | 96 | 72 | 77 | 94 | 90 | – | – | – | – | – | – | – | – | – | – | –
17 | AYTIFNKTLMEADAH | – | 86 | – | – | 121 | 98 | 118 | – | – | 97 | 78 | – | – | – | – | – | –
18 | CDIFTNSRGKRASKG | 1 | 42 | 101 | 90 | 104 | 133 | – | – | – | – | – | – | – | – | – | – | –
19 | CGFVDERGLYKSLKG | – | 72 | – | – | 115 | 94 | 85 | – | – | 90 | 76 | – | – | – | – | – | –
20 | CGVLGLRLMDGTWVA | – | 99 | – | – | 117 | 96 | 110 | – | – | 101 | 91 | – | – | – | – | – | –
21 | CHPHVNGVFFNGIIL | – | 97 | – | – | 150 | 94 | 113 | – | – | 105 | 101 | – | – | – | – | – | –
22 | CKLKLCGVLGLRLMD | – | 410 | – | – | 111 | 88 | 64 | bound | – | 91 | 74 | – | – | – | – | – | –
23 | CLDALESIMTTKSVS | – | 101 | – | – | 146 | 106 | 111 | – | – | 123 | 90 | – | – | – | – | – | –
24 | CLRVGGRCHPHVNGV | – | 102 | – | – | 132 | 103 | 101 | – | – | 111 | 104 | – | – | – | – | – | –
25 | CPNNLVVEDEGCTNL | 79 | 77 | 84 | 54 | 97 | 75 | – | – | – | – | – | – | – | – | – | – | –
26 | CPPDQLVNLHDFRSD | – | 93 | – | – | 137 | 115 | 137 | – | – | 92 | 123 | – | – | – | – | – | –
27 | CRAAYNWKMAGDPRY | 107 | 87 | 111 | 68 | 118 | 113 | – | – | – | – | – | – | – | – | – | – | –
28 | CSGVAVSSTYCSTNH | 94 | 110 | 94 | 90 | 165 | 106 | – | – | – | – | – | – | – | – | – | – | –
29 | CSTNHDYTIWMPENP | 47 | 52 | 41 | 72 | 106 | 58 | – | – | – | – | – | – | – | – | – | – | –
